According to ChEMBL document CHEMBL1132017, “In vitro susceptibility of Helicobacter pylori to trifluoromethyl ketones” (1999):
Converted amounts (≈) assume the structure as drawn.

Test system: Helicobacter pylori
Experiment: In vitro inhibitory activity evaluated against Helicobacter pylori (HP)
Assay type: functional

Structure (SMILES) | MIC50
O=C(c1ccc[nH]1)C(F)(F)F | > 100 µg/mL
O=C(c1cccs1)C(F)(F)F | 53 µg/mL (≈ 294 µM)
O=C(c1c[nH]c2ccccc12)C(F)(F)F | 12 µg/mL (≈ 56.3 µM)
O=C(c1ccccc1)C(F)(F)F | > 100 µg/mL
O=C(c1nc2ccccc2o1)C(F)(F)F | > 100 µg/mL
O=C(Cc1ccccc1)C(F)(F)F | > 100 µg/mL
CC[C@H]1OC(=O)[C@H](C)[C@@H](O[C@H]2C[C@@](C)(OC)[C@@H](O)[C@H](C)O2)[C@H](C)[C@@H](O[C@@H]2O[C@H](C)C[C@H](N(C)C)[C@H]2O)[C@](C)(O)C[C@@H](C)C(=O)[C@H](C)[C@@H](O)[C@]1(C)O [ERYTHROMYCIN] | 1.8 µg/mL (≈ 2.45 µM)
CC[C@H]1OC(=O)[C@H](C)[C@@H](O[C@H]2C[C@@](C)(OC)[C@@H](O)[C@H](C)O2)[C@H](C)[C@@H](O[C@@H]2O[C@H](C)C[C@H](N(C)C)[C@H]2O)[C@](C)(OC)C[C@@H](C)C(=O)[C@H](C)[C@@H](O)[C@]1(C)O [CLARITHROMYCIN] | 1.9 µg/mL (≈ 2.54 µM)

The next lines start with the values.

MIC50 | Structure (SMILES)
3.6 µg/mL (≈ 15.7 µM) | O=C(Cc1nc2ccccc2o1)C(F)(F)F
51 µg/mL (≈ 291 µM) | CC(=O)Cc1nc2ccccc2o1
70 µg/mL (≈ 285 µM) | O=C(Cc1nc2ccccc2s1)C(F)(F)F
52 µg/mL (≈ 228 µM) | O=C(Cc1nc2ccccc2[nH]1)C(F)(F)F
> 100 µg/mL | Cc1nc(CC(=O)C(F)(F)F)oc1C
> 100 µg/mL | Cn1c(C(=O)C(F)(F)F)cnc1-c1ccccc1
> 100 µg/mL | O=C(Cc1ccccn1)C(F)(F)F
74 µg/mL (≈ 432 µM) | Cc1ncc([N+](=O)[O-])n1CCO [METRONIDAZOLE]
